This is an account of results in patent US20080118529A1 (priority 2005, published 2008).

In one data set the test system is tPA. It counts as biochemical, human.
Data set [1] deals with T1, factor XII (Homo sapiens, UniProt P00748). It counts as biochemical.
The test system of the next data set is U937 monocytes. It counts as cell-based, human. Particulars: 1 h.
Data set [2] concerns the target T1, factor XII. It counts as biochemical. The source holds these as a separate data set.
Another data set has as its system DOVA. The arrangement: species or system chicken. Conditions: in vivo.
The next data set concerns OVA. Also noted: species or system chicken. Particulars: in vivo.
For another data set, the system named is nOVA. The arrangement: species or system Balb/c mice. Conditions: mouse, in vivo.
nOVA, sequence (P01012 whole entry): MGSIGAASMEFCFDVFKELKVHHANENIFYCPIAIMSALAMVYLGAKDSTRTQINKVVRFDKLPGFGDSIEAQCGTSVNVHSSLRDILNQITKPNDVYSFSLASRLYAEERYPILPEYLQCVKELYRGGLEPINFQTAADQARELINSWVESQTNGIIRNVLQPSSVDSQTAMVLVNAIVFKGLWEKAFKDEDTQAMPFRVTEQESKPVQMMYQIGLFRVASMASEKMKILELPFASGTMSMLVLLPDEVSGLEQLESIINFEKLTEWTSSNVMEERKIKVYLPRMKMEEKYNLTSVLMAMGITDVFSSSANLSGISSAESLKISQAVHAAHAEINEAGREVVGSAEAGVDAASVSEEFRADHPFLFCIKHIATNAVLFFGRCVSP

T1 sequence (P00748 20-615): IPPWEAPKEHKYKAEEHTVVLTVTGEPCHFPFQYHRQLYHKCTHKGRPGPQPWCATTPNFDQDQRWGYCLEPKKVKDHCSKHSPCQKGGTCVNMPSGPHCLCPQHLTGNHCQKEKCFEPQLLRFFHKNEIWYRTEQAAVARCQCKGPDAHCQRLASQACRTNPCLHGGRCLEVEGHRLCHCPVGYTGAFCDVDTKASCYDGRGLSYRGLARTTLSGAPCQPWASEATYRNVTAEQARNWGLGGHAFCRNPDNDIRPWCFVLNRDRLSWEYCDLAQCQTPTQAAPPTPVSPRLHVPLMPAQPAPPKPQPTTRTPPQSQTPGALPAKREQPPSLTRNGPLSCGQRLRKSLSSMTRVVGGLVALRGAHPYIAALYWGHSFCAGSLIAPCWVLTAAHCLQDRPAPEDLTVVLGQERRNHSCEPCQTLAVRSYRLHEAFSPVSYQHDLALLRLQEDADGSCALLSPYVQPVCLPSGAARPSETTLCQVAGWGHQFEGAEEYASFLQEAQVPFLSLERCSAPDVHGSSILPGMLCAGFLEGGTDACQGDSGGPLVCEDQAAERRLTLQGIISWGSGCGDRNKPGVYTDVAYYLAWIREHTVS

For `CCCCCCCCCCCCCCCCCC[N+](C)(C)CCCCCCCCCCCCCCCCCC.[Br-]` [DDA, dimethyl dioctadecyl ammonium bromide], the “activation of tPA by adjuvants” value in the data set on tPA is reported as “activators of tPA”. As for `Cc1ccc2c(c1)sc(-c1ccc(N(C)C)cc1)[n+]2C.[Cl-]` [ThT, Thioflavin T], on factor XII [1], the “inhibition of factor XII activation by DXS500k and 80× diluted plasma” value is “fully inhibited”; the “inhibition of the stimulatory activity of FP13 K157G on factor XII autoactivation” value is recorded as “effectively inhibits”. For the compound Endostatin, the “TNFα RNA expression compared to LPS” value with U937 monocytes (100 μg/ml amyloid endostatin, 260 μg/ml Hb-AGE, 1 μg/ml LPS, normalized to 18S) is reported as “approximately 30%”. Regarding Etanercept [Native Etanercept], the “tPA/plasminogen activating potential of protein/antigen preparation” value in the data set on tPA is listed as “some tPA activation”. For the compound “control Hb: control haemoglobin, not glycated”, in the data set with U937 monocytes (260 μg/ml), the “TNFα RNA expression relative to endostatin and Hb-AGE” value was “approximately threefold lower”; the “TNFα RNA upregulation relative to values after amyloid endostatin or glycated Hb stimulation” value is reported as at most 30%. For dextran-sulphate [DXS500k], the “activation of tPA by adjuvants” value in the data set with tPA is on record as “activators of tPA”. The “activation of factor XII in the presence of prekallikrein and high molecular weight kininogen” value at factor XII [2] is reported as “only then effectively activated”. In addition, the “factor XII activation by DXS500k” value at factor XII [1] is on record as “only a stimulatory factor for factor XII activation when 80× diluted plasma is present”.

For glucagon [native glucagon], in the data set with tPA, the “tPA/plasminogen activating potential of protein/antigen preparation” value is reported as “some tPA activating potential”. Consider ovalbumin [nOVA], for which, in the data set on DOVA, the anti-DOVA titer entry is “can not elicit”. Moreover, the anti-OVA titer entry in the data set with OVA is “can not elicit”. In the data set on nOVA, the “anti-nOVA titer after one week” value is “no titer was detected” and the “titer of anti-nOVA antibodies” value was 610.
